Results on 24 molecules are retold here after patent US11325913B2, “Compounds and methods for the treatment of malaria” (THE BROAD INSTITUTE, INC., priority 2013, dated 2022).

As a reminder, the EC50 is the concentration at which the effect is half-maximal. Read a high EC50 as lower potency in that assay.

The first assay concerns P. falciparum Dd2. As to the kind of experiment: Activity against the Dd2 strain of P. falciparum (SYBR Green I, 72 h). The class given is cell-based. To be noted: P. falciparum Dd2, 72 h incubation. Here is the method:
The Dd2 strain of P. falciparum was cultured in complete medium (RPMI with L-glutamine, 4.3% heat-inactivated O-positive human serum, 2.08 mg/ml albumax, 0.013 mg/ml hypoxanthine, 1.17 mg/ml glucose, 0.18% NaHCO3, 0.031 M Hepes, 2.60 mM NaOH, and 0.043 mg/ml gentamicin) until the parasitemia reached 3-8%. Parasitemia was determined by checking at least 500 red blood cells from a Giemsa-stained blood smear. The Dd2 cultures along with tested O-positive red blood cells were centrifuged at room temperature at 2,000 rpm for 5 minutes using an Eppendorf centrifuge 5810R with an A-4-81 rotor. The medium was aspirated off. For the compound screening, a parasite dilution at a 1% parasitemia and 1.0% hematocrit was created with screening medium (RPMI with L-glutamine, 4.16 mg/ml albumax II, 0.013 mg/ml hypoxanthine, 1.73 mg/ml glucose, 0.18% NaHCO3, 0.031 M Hepes, 2.60 mM NaOH, and 0.043 mg/ml gentamicin). The suspension was gassed with 93% nitrogen, 4% carbon dioxide, and 3% oxygen and placed at 37° C. until needed. Using a liquid dispenser, 20 μl of screening medium was dispensed into 384-well, black, clear-bottom plates. With a PinTool, 100 nl of compounds dissolved in DMSO was transferred into the assay plates along with control compound (mefloquine). Next, 30 μl of the parasite suspension in screening medium was then dispensed into the assay plates such that the final parasitemia was 1% and the final hematocrit was 1.0%. Final concentration of DMSO was 0.125%. Mefloquine at a final concentration of 20 μM and DMSO at a final concentration of 0.125% were used within the assay plates to serve as background and baseline controls, respectively. The assay plates were transferred to incubators (93% nitrogen, 4% carbon dioxide, and 3% oxygen during the 72 h incubation at 37° C.). Ten microliters of detection reagent consisting of 10×SYBR Green I (Invitrogen; supplied in 10,000× concentration) in lysis buffer (20 mM Tris-HCl, 5 mM EDTA, 0.16% Saponin wt/vol, 1.6% Triton X vol/vol) was dispensed into the assay plates. For optimal staining, the assay plates were left at room temperature for 24 h in the dark. The assay plates were read by using an Envision (PerkinElmer) reader, with 505 dichroic mirrors with 485-nm excitation and 530-nm emission settings, and the plate reads were from the bottom.
By following the above-described protocol, the 50% effective concentration (EC50) for compounds 1-95 was measured against P. falciparum Dd2 and the results are shown in Table 2: […]
On to `O=C(Nc1ccc(F)cc1)N1CCCCN2[C@H](CO)[C@H](c3ccc(C#Cc4ccccc4)cc3)[C@@H]2C1` [Compound 11, (8R,9R,10S)-N-(4-fluorophenyl)-10-(hydroxymethyl)-9-(4-(phenylethynyl)phenyl)-1,6-diazabicyclo[6.2.0] decane-6-carboxamide], for which the EC50 stood at 17 nM.

The assay is the same for the next values; noted with them: Plasmodium falciparum, DD2, 72 h, P. falciparum Dd2, 72 h incubation.
With `COc1cccc(CN2CCCCN3[C@H](CO)[C@@H](c4ccc(C#Cc5cccnc5)cc4)[C@@H]3C2)c1` [Compound 1, ((8R,9S,10S)-6-(3-methoxybenzyl)-9-(4-(pyridin-3-ylethynyl)phenyl)-1,6-diazabicyclo[6.2.0]decan-10-yl)methanol], it took 427 nM to reach a half-maximal effect (EC50).

In the case of `O=C(Nc1ccccc1)N1CCCCN2[C@H](CO)[C@H](c3ccc(C#Cc4cccnc4)cc3)[C@@H]2C1` [Compound 2, (8R,9R,10S)-10-(hydroxymethyl)-N-phenyl-9-(4-(pyridin-3-ylethynyl)phenyl)-1,6-diazabicyclo[6.2.0] decane-6-carboxamide], a half-maximal effect (EC50) was put at 165 nM. The same measure, in the same setting: the result for `COc1ccccc1NC(=O)N1CCCCN2[C@H](CO)[C@H](c3ccc(C#Cc4ccccc4)cc3)[C@@H]2C1` [Compound 3, (8R,9R,10S)-10-(hydroxymethyl)-N-(2-methoxyphenyl)-9-(4-(phenylethynyl)phenyl)-1,6-diazabicyclo[6.2.0] decane-6-carboxamide] reads 118 nM. The same measure, in the same setting: to `COc1ccc(NC(=O)N2CCCCN3[C@H](CO)[C@H](c4ccc(C#Cc5ccccn5)cc4)[C@@H]3C2)cc1` [Compound 4, (8R,9R,10S)-10-(hydroxymethyl)-N-(4-methoxyphenyl)-9-(4-(pyridin-2-ylethynyl)phenyl)-1,6-diazabicyclo[6.2.0] decane-6-carboxamide] belongs 131 nM; to `O=S(=O)(c1ccc(F)cc1)N1CCCCN2[C@@H](CO)[C@@H](c3ccc(C4=CCCCC4)cc3)[C@@H]2C1` [Compound 5, ((8R,9S,10R)-6-((4-fluorophenyl)sulfonyl)-9-(2′,3′,4′,5′-tetrahydro-[1,1′-biphenyl]-4-yl)-1,6-diazabicyclo[6.2.0]decan-10-yl)methanol], 1070 nM; to `O=C(Nc1ccccc1)N1CCCCN2[C@@H](CO)[C@H](c3ccc(C#Cc4cccnc4)cc3)[C@@H]2C1` [Compound 6, (8R,9R,10R)-10-(hydroxymethyl)-N-phenyl-9-(4-(pyridin-3-ylethynyl)phenyl)-1,6-diazabicyclo[6.2.0] decane-6-carboxamide], 552 nM. Still for that read-out and setting: to `Cc1cccc(-c2ccc([C@H]3[C@H]4CN(S(=O)(=O)c5cccc(C)c5)CCCCN4[C@H]3CO)cc2)c1` [Compound 7, ((8S,9S,10R)-9-(3′-methyl-[1,1′-biphenyl]-4-yl)-6-(m-tolylsulfonyl)-1,6-diazabicyclo[6.2.0]decan-10-yl)methanol] belongs 1190 nM; to `COc1ccc(C#Cc2ccc([C@@H]3[C@@H](CO)N4CCCCN(C(=O)Nc5cccc(F)c5)C[C@H]34)cc2)cc1` [Compound 8, (8S,9S,10S)-N-(3-fluorophenyl)-10-(hydroxymethyl)-9-(4-((4-methoxyphenyl)ethynyl)phenyl)-1,6-diazabicyclo[6.2.0] decane-6-carboxamide], 83 nM. `OC[C@H]1[C@@H](c2ccc(-c3ccc(F)cc3)cc2)[C@@H]2CN(CCC(F)(F)F)CCCCN12` [Compound 9, ((8R,9S,10R)-9-(4′-fluoro-[1,1′-biphenyl]-4-yl)-6-(3,3,3-trifluoropropyl)-1,6-diazabicyclo[6.2.0]decan-10-yl)methanol] registered an EC50 of 518 nM. Still for that read-out and setting: to `O=C(Nc1ccccc1F)N1CCCCN2[C@@H](CO)[C@H](c3ccc(C#Cc4cccnc4)cc3)[C@@H]2C1` [Compound 10, (8R,9R,10R)-N-(2-fluorophenyl)-10-(hydroxymethyl)-9-(4-(pyridin-3-ylethynyl)phenyl)-1,6-diazabicyclo[6.2.0] decane-6-carboxamide] belongs 949 nM; to `O=C(Nc1ccccc1F)N1CCCCN2[C@@H](CO)[C@@H](c3ccc(C#Cc4cccnc4)cc3)[C@@H]2C1` [Compound 12], 950 nM; to `O=C(Nc1cccc(F)c1)N1CCCCN2[C@H](CO)[C@H](c3ccc(C#Cc4ccccc4)cc3)[C@@H]2C1` [Compound 13, (8R,9R,10S)-N-(3-fluorophenyl)-10-(hydroxymethyl)-9-(4-(phenylethynyl)phenyl)-1,6-diazabicyclo[6.2.0] decane-6-carboxamide], 44 nM. The same measure, in the same setting: the result for `COc1ccccc1NC(=O)N1CCCCN2[C@H](CO)[C@H](c3ccc(C#CC4CC4)cc3)[C@H]2C1` [Compound 14, (8S,9R,10S)-9-(4-(cyclopropylethynyl)phenyl)-10-(hydroxymethyl)-N-(2-methoxyphenyl)-1,6-diazabicyclo[6.2.0] decane-6-carboxamide] reads 1200 nM. With `COc1ccccc1C#Cc1ccc([C@@H]2[C@@H](CO)N3CCCCN(CCC(F)(F)F)C[C@H]23)cc1` [Compound 15, ((8S,9S,10S)-9-(4-((2-methoxyphenyl)ethynyl)phenyl)-6-(3,3,3-trifluoropropyl)-1,6-diazabicyclo[6.2.0]decan-10-yl)methanol], the half-maximal effective concentration (EC50) amounted to 254 nM. Still for that read-out and setting: the result for `OC[C@H]1[C@@H](c2ccc(-c3cccc(F)c3)cc2)[C@@H]2CN(CCC(F)(F)F)CCCCN12` [Compound 16, ((8R,9S,10R)-9-(3′-fluoro-[1,1′-biphenyl]-4-yl)-6-(3,3,3-trifluoropropyl)-1,6-diazabicyclo[6.2.0]decan-10-yl)methanol] reads 618 nM; that for `COc1cccc(CN2CCCCN3[C@H](CO)[C@@H](c4ccc(C#Cc5cccnc5)cc4)[C@H]3C2)c1` [Compound 17, ((8S,9S,10S)-6-(3-methoxybenzyl)-9-(4-(pyridin-3-ylethynyl)phenyl)-1,6-diazabicyclo[6.2.0]decan-10-yl)methanol], 560 nM; that for `COc1ccc(C#Cc2ccc([C@@H]3[C@@H](CO)N4CCCCN(C(=O)Nc5ccccc5F)C[C@H]34)cc2)cc1` [Compound 18, (8S,9S,10S)-N-(2-fluorophenyl)-10-(hydroxymethyl)-9-(4-((4-methoxyphenyl)ethynyl)phenyl)-1,6-diazabicyclo[6.2.0] decane-6-carboxamide], 800 nM. Same read-out and setting: to `CC(C)CC#Cc1ccc([C@@H]2[C@H](CO)N3CCCCN(S(=O)(=O)Cc4ccccc4)C[C@@H]23)cc1` [Compound 19, ((8R,9S,10R)-6-(benzylsulfonyl)-9-(4-(4-methylpent-1-yn-1-yl)phenyl)-1,6-diazabicyclo[6.2.0]decan-10-yl)methanol] belongs 805 nM; to `COCC#Cc1ccc([C@@H]2[C@H](CO)N3CCCCN(S(=O)(=O)c4ccc(OC)cc4)C[C@@H]23)cc1` [Compound 20, ((8R,9S,10R)-6-((4-methoxyphenyl)sulfonyl)-9-(4-(3-methoxyprop-1-yn-1-yl)phenyl)-1,6-diazabicyclo[6.2.0]decan-10-yl)methanol], 1330 nM; to `OC[C@@H]1[C@H](c2ccc(-c3ccccc3)cc2)[C@H]2CN(CCC(F)(F)F)CCCCN12` [Compound 21, ((8S,9R,10S)-9-([1,1′-biphenyl]-4-yl)-6-(3,3,3-trifluoropropyl)-1,6-diazabicyclo[6.2.0]decan-10-yl)methanol], 623 nM.

Consider `O=C(Nc1ccccc1F)N1CCCCN2[C@H](CO)[C@H](c3ccc(C#Cc4cccnc4)cc3)[C@@H]2C1` [Compound 22, (8R,9R,10S)-N-(2-fluorophenyl)-10-(hydroxymethyl)-9-(4-(pyridin-3-ylethynyl)phenyl)-1,6-diazabicyclo[6.2.0] decane-6-carboxamide], for which the concentration giving a half-maximal response (EC50) turned out to be 507 nM. For `COc1ccccc1NC(=O)N1CCCCN2[C@@H](CO)[C@H](c3ccc(C#CC4CCCC4)cc3)[C@@H]2C1` [Compound 23, (8R,9R,10R)-9-(4-(cyclopentylethynyl)phenyl)-10-(hydroxymethyl)-N-(2-methoxyphenyl)-1,6-diazabicyclo[6.2.0] decane-6-carboxamide], the EC50 was determined as 386 nM. The same measure, in the same setting: to `COc1ccc(NC(=O)N2CCCCN3[C@H](CO)[C@H](c4ccc(C#CCC(C)C)cc4)[C@@H]3C2)cc1` [Compound 24, (8R,9R,10S)-10-(hydroxymethyl)-N-(4-methoxyphenyl)-9-(4-(4-methylpent-1-yn-1-yl)phenyl)-1,6-diazabicyclo[6.2.0] decane-6-carboxamide] belongs 418 nM.
